# Results: PubChem BioAssay (NCI)
#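 In this assay, cells in 96-well plates receive the compound at five concentrations for 48 hours. Endpoints are linearly interpolated between the surrounding concentrations. TGI marks complete inhibition of growth.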
# Experiments:
# Assay in all cases: growth of human tumour cells (NCI), 48 h
# [1] = tested on: 786-0 renal
# [2] = tested on: A549 NSCLC
# [3] = tested on: ACHN renal
# [4] = tested on: CAKI-1 renal
# [5] = tested on: CCRF-CEM leukemia
# [6] = tested on: COLO 205 colon
# [7] = tested on: DLD-1 colon
# [8] = tested on: EKVX NSCLC
# [9] = tested on: HCC-2998 colon
# [10] = tested on: HCT-116 colon
# [11] = tested on: HL-60(TB) leukemia
# [12] = tested on: HOP-18 NSCLC
# [13] = tested on: HOP-92 NSCLC
# [14] = tested on: HT29 colon
# [15] = tested on: IGROV1 ovarian
# [16] = tested on: K-562 leukemia
# [17] = tested on: KM12 colon
# [18] = tested on: KM20L2 colon
# [19] = tested on: LOX IMVI melanoma
# [20] = tested on: LXFL 529 NSCLC
# [21] = tested on: M14 melanoma
# [22] = tested on: M19-MEL melanoma
# [23] = tested on: MALME-3M melanoma
# [24] = tested on: MOLT-4 leukemia
# [25] = tested on: NCI-H226 lung
# [26] = tested on: NCI-H23 lung
# [27] = tested on: NCI-H460 lung
# [28] = tested on: OVCAR-3 ovarian
# [29] = tested on: OVCAR-4 ovarian
# [30] = tested on: OVCAR-5 ovarian
# [31] = tested on: OVCAR-8 ovarian
# [32] = tested on: SF-268 CNS
# [33] = tested on: SF-295 CNS
# [34] = tested on: SF-539 CNS
# [35] = tested on: SK-OV-3 ovarian
# [36] = tested on: SN12C renal
# [37] = tested on: SNB-19 CNS
# [38] = tested on: SNB-75 CNS
# [39] = tested on: SNB-78 CNS
# [40] = tested on: SR leukemia
# [41] = tested on: SW-620 colon
# [42] = tested on: TK-10 renal
# [43] = tested on: U251 CNS
# [44] = tested on: UACC-257 melanoma
# [45] = tested on: UACC-62 melanoma
# [46] = tested on: UO-31 renal
compound,measurement,setting,value
COc1cc2c(c(OC)c1OC)-c1ccc(SC)c(=O)cc1[C@@H](NCc1cccc([N+](=O)[O-])c1)CC2,TGI,[1],34.4 µM
same,TGI,[2],> 100 µM
same,TGI,[3],> 100 µM
same,TGI,[4],> 100 µM
same,TGI,[5],> 100 µM
same,TGI,[6],< 10 nM
same,TGI,[7],> 100 µM
same,TGI,[8],> 100 µM
same,TGI,[9],< 10 nM
same,TGI,[10],< 10 nM
same,TGI,[11],> 100 µM
same,TGI,[12],> 100 µM
same,TGI,[13],> 100 µM
same,TGI,[14],< 10 nM
same,TGI,[15],> 100 µM
same,TGI,[16],2390 nM
same,TGI,[17],75.4 nM
same,TGI,[18],< 10 nM
same,TGI,[19],38.1 µM
same,TGI,[20],> 100 µM
same,TGI,[21],13.1 µM
same,TGI,[22],> 100 µM
same,TGI,[23],> 100 µM
same,TGI,[24],> 100 µM
same,TGI,[25],< 10 nM
same,TGI,[26],< 10 nM
same,TGI,[27],12.4 µM
same,TGI,[28],< 10 nM
same,TGI,[29],> 100 µM
same,TGI,[30],> 100 µM
same,TGI,[31],43.8 µM
same,TGI,[32],28 µM
same,TGI,[33],> 100 µM
same,TGI,[34],170 nM
same,TGI,[35],> 100 µM
same,TGI,[36],> 100 µM
same,TGI,[37],> 100 µM
same,TGI,[38],> 100 µM
same,TGI,[39],> 100 µM
same,TGI,[40],> 100 µM
same,TGI,[41],> 100 µM
same,TGI,[42],> 100 µM
same,TGI,[43],< 10 nM
same,TGI,[44],> 100 µM
same,TGI,[45],17.8 µM
same,TGI,[46],> 100 µM
